Measurements taken from patent US8314150B2, “Kinase protein binding inhibitors” (priority 2008, dated 2012).

Columns and labels:
cell growth and survival = conditions: cited from earlier work
Y397-FAK phosphorylation = conditions: cited from earlier work
[1] = system: Y397 phosphorylation of FAK; test: Western blotting with Y397 FAK antibody, BT474 cells; assay type: cell-based; conditions: 100 μM
Description: (§1) Cell Viability Assay—The Cells were treated with peptides for 24 hours at different peptide concentrations. The 3-(4,5-dimethylthiazol-2-yl)-5-(3-carboxymethoxyphenyl)-2-(4-sulfophenyl)-2H-tetrazolium compound from Promega Viability kit (Madison, Ill.) was added, and the cells were incubated at 37° C. for 1-2 hours. The optical density on 96-plate was analyzed with a microplate reader at 490 nm to determine cell viability. In addition, cells were stained with trypan blue after 24 hours of treatment with Y15 and the percent of cells that stained positive were determined with a hemacytometer. Cell adhesion assay—The poly-L-Lysine or Collagen (5 μg/ml) coated 96-well plates were blocked with the blocking buffer (medium with 0.5% BSA) for 1 hour at 37 C. The cells were pre-treated with drugs for 3 hours and plated for adhesion at 4×10^5 cells. Cells were incubated at 37 C for 1 hour, fixed in 3.7% formaldehyde, washed in 0.1% BSA in PBS and stained with crystal violet (5 mg/ml in 2% ethanol) for 10 minutes. Then 2% SDS was added to the dried plated and OD at 590 nm was measured for detecting cell adhesion. Western Blotting—Cells or homogenized tumor samples were washed twice with cold 1×PBS and lysed on ice for 30 minutes in a buffer containing: 50 mM Tris-HCl (pH 7.5), 150 mM NaCl, 1% Triton-X, 0.5% NaDOC, 0.1% SDS, 5 mM EDTA, 50 mM NaF, 1 mM NaVO3, 10% glycerol and protease inhibitors: 10 μg/ml leupeptin, 10 μg/ml PMSF and 1 μg/ml aprotinin. The lysates were cleared by centrifugation at 10,000 rpm for 30 minutes at 4° C. Protein concentrations were determined using a Bio-Rad Kit. The boiled samples were loaded on Ready SDS-10% PAGE gels (Bio Rad, Inc) and used for Western blot analysis with the protein-specific antibody. Immunoblots were developed with chemiluminescence Renaissance reagent (NEN Life Science Products, Inc). Immunoprecipitation. Immunoprecipitation was performed according to the standard protocol. In brief, the pre-cleared lysates with equal amount of protein were incubated with 1 μg of primary antibody and 30 μl A/G agarose beads overnight at 4° C. The precipitates were washed with lysis buffer three times and re-suspended in 2× Laemmli buffer. The boiled samples were used for Western blotting, as described above. Detachment Assay—Cells were plated with and without inhibitors for 24 hours, and detached and attached cells were counted in a hemocytometer. We calculated the percent of detachment by dividing the number of detached cells by the total number of cells. The percent of detached cells was calculated in three independent experiments. Apoptosis Assay. Detached cells were collected and fixed in 3.7% formaldehyde in 1×PBS solution for the apoptosis assay. Detection of apoptosis was done with Hoechst 33342 staining. The percent of apoptotic cells was calculated as a ratio of apoptotic detached cells divided by the total number of cells in three independent experiments in several fields with the fluorescent microscope. For each experiment 300 cells per treatment were counted. In vitro Kinase Assay—10 μCi of [γ-^32P]-ATP in a kinase buffer (20 mM HEPES, pH 7.4, 5 mM MgCl2, 5 mM MnCl2, 0.1 mM Na3VO4 with 0.1 μg of purified FAK protein were incubated in a kinase buffer with 10 μCi of [γ-^32P]-ATP. The kinase reaction was performed for 5 minutes at room temperature and stopped by addition of 2× Laemmli buffer. Proteins were separated on a Ready SDS-10% PAGE gel, and the phosphorylated enolase was visualized by autoradiography. KinaseProfiler screening—Kinase specificity screening was performed with KinaseProfiler™ Service (Millipore) available on http://www.millipore.com/drugdiscovery/dd3/KinaseProfiler. The screening was performed with 1 μM Y15, 10 μM ATP and kinase substrates on 9 recombinant kinases according to Millipore protocol. Tumor Growth in Nude Mice—Female nude mice, 6 weeks old, were purchased from Harlan Laboratory. […]

FAK = molecular target: T1, FAK (Homo sapiens, UniProt Q05397); test: In vitro kinase assay with purified recombinant FAK; assay type: biochemical; conditions: positive control
T1 construct: made in house; host or cells: Baculovirus system
T1 sequence (Q05397 whole entry): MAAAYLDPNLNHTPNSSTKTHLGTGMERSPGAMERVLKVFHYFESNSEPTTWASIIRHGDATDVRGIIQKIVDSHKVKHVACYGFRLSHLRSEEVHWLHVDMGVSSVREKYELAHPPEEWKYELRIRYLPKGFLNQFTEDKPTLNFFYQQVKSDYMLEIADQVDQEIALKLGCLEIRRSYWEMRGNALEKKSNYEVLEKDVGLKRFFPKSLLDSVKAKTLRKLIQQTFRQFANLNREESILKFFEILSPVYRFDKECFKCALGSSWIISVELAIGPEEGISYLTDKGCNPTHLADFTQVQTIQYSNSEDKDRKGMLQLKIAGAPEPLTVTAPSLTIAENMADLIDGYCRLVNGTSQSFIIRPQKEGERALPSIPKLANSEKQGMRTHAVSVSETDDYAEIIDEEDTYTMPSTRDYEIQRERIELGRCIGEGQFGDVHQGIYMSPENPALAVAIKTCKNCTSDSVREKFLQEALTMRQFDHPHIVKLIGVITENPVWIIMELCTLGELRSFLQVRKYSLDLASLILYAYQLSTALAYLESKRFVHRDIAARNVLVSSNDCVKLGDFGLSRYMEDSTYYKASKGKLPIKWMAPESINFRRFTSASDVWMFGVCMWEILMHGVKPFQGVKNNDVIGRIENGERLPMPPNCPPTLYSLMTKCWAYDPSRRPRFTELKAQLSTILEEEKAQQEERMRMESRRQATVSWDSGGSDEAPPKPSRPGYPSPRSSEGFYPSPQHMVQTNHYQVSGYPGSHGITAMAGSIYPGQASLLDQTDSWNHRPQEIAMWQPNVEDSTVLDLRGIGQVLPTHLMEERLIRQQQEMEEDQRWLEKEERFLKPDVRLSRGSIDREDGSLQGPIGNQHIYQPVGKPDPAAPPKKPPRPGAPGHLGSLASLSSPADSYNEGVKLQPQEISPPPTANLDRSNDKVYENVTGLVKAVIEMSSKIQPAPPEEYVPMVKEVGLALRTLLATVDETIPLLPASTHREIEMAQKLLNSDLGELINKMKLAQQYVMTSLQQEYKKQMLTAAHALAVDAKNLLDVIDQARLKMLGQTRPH
Description: (§2) Cell Viability Assay—The Cells were treated with peptides for 24 hours at different peptide concentrations. The 3-(4,5-dimethylthiazol-2-yl)-5-(3-carboxymethoxyphenyl)-2-(4-sulfophenyl)-2H-tetrazolium compound from Promega Viability kit (Madison, Ill.) was added, and the cells were incubated at 37° C. for 1-2 hours. The optical density on 96-plate was analyzed with a microplate reader at 490 nm to determine cell viability. In addition, cells were stained with trypan blue after 24 hours of treatment with Y15 and the percent of cells that stained positive were determined with a hemacytometer. […] Then 2% SDS was added to the dried plated and OD at 590 nm was measured for detecting cell adhesion. […] Protein concentrations were determined using a Bio-Rad Kit. The boiled samples were loaded on Ready SDS-10% PAGE gels (Bio Rad, Inc) and used for Western blot analysis with the protein-specific antibody. […] Detachment Assay—Cells were plated with and without inhibitors for 24 hours, and detached and attached cells were counted in a hemocytometer. We calculated the percent of detachment by dividing the number of detached cells by the total number of cells. The percent of detached cells was calculated in three independent experiments. […] For each experiment 300 cells per treatment were counted. […]

BT474 cells [2] = test: Detachment assay, BT474; assay type: cell-based; conditions: 24 hours
Description: as §1, with “Detached cells were collected and fixed in 3.7% formaldehyde in 1×PBS solution for the apoptosis assay. Detection of apoptosis was done with Hoechst 33342 staining.” left out, “http://www.millipore.com/drugdiscovery/dd3/KinaseProfiler.” for “http://www.millipore.com/drugdiscovery/dd3/KinaseProfiler. The screening was performed with 1 μM Y15, 10 μM ATP and kinase substrates on 9 recombinant kinases according to Millipore protocol. Tumor Growth in Nude Mice—Female nude mice, 6 weeks old, were purchased from Harlan Laboratory.”

BT474 cells [3] = test: Apoptosis assay (Hoechst staining), BT474; assay type: cell-based
Description: as §1, with “Western Blotting—Cells or homogenized tumor samples were washed twice with cold 1×PBS and lysed on ice for 30 minutes in a buffer containing: 50 mM Tris-HCl (pH 7.5), 150 mM NaCl, 1% Triton-X, 0.5% NaDOC, 0.1% SDS, 5 mM EDTA, 50 mM NaF, 1 mM NaVO3, 10% glycerol and protease inhibitors: 10 μg/ml leupeptin, 10 μg/ml PMSF and 1 μg/ml aprotinin. The lysates were cleared by centrifugation at 10,000 rpm for 30 minutes at 4° C.” left out, “Immunoblots were developed with chemiluminescence Renaissance reagent (NEN Life Science Products, Inc). Immunoprecipitation. Immunoprecipitation was performed according to the standard protocol. In brief, the pre-cleared lysates with equal amount of protein were incubated with 1 μg of primary antibody and 30 μl A/G agarose beads overnight at 4° C. The precipitates were washed with lysis buffer three times and re-suspended in 2× Laemmli buffer. The boiled samples were used for Western blotting, as described above.” left out, “Apoptosis Assay. Detached cells were collected and fixed in 3.7% formaldehyde in 1×PBS solution for the apoptosis assay. Detection of apoptosis was done with Hoechst 33342 staining.” left out, “http://www.millipore.com/drugdiscovery/dd3/KinaseProfiler.” for “http://www.millipore.com/drugdiscovery/dd3/KinaseProfiler. The screening was performed with 1 μM Y15, 10 μM ATP and kinase substrates on 9 recombinant kinases according to Millipore protocol. Tumor Growth in Nude Mice—Female nude mice, 6 weeks old, were purchased from Harlan Laboratory.”

Panc-1 cells = test: Apoptosis assay (Hoechst staining), Panc-1; assay type: cell-based, human; conditions: 48 hours
Description: Cell Viability Assay—The Cells were treated with peptides for 24 hours at different peptide concentrations. The 3-(4,5-dimethylthiazol-2-yl)-5-(3-carboxymethoxyphenyl)-2-(4-sulfophenyl)-2H-tetrazolium compound from Promega Viability kit (Madison, Ill.) was added, and the cells were incubated at 37° C. for 1-2 hours. The optical density on 96-plate was analyzed with a microplate reader at 490 nm to determine cell viability. In addition, cells were stained with trypan blue after 24 hours of treatment with Y15 and the percent of cells that stained positive were determined with a hemacytometer. Cell adhesion assay—The poly-L-Lysine or Collagen (5 μg/ml) coated 96-well plates were blocked with the blocking buffer (medium with 0.5% BSA) for 1 hour at 37 C. The cells were pre-treated with drugs for 3 hours and plated for adhesion at 4×10^5 cells. Cells were incubated at 37 C for 1 hour, fixed in 3.7% formaldehyde, washed in 0.1% BSA in PBS and stained with crystal violet (5 mg/ml in 2% ethanol) for 10 minutes. Then 2% SDS was added to the dried plated and OD at 590 nm was measured for detecting cell adhesion. […] Protein concentrations were determined using a Bio-Rad Kit. The boiled samples were loaded on Ready SDS-10% PAGE gels (Bio Rad, Inc) and used for Western blot analysis with the protein-specific antibody. […] Detachment Assay—Cells were plated with and without inhibitors for 24 hours, and detached and attached cells were counted in a hemocytometer. We calculated the percent of detachment by dividing the number of detached cells by the total number of cells. The percent of detached cells was calculated in three independent experiments. […] The percent of apoptotic cells was calculated as a ratio of apoptotic detached cells divided by the total number of cells in three independent experiments in several fields with the fluorescent microscope. For each experiment 300 cells per treatment were counted. […]

glioma and ovarian tumor = conditions: cited from earlier work
IGFR kinase = IGFR kinase (Homo sapiens, UniProt P08069); conditions: cited from earlier work
Chain of IGFR kinase (P08069 31-1367): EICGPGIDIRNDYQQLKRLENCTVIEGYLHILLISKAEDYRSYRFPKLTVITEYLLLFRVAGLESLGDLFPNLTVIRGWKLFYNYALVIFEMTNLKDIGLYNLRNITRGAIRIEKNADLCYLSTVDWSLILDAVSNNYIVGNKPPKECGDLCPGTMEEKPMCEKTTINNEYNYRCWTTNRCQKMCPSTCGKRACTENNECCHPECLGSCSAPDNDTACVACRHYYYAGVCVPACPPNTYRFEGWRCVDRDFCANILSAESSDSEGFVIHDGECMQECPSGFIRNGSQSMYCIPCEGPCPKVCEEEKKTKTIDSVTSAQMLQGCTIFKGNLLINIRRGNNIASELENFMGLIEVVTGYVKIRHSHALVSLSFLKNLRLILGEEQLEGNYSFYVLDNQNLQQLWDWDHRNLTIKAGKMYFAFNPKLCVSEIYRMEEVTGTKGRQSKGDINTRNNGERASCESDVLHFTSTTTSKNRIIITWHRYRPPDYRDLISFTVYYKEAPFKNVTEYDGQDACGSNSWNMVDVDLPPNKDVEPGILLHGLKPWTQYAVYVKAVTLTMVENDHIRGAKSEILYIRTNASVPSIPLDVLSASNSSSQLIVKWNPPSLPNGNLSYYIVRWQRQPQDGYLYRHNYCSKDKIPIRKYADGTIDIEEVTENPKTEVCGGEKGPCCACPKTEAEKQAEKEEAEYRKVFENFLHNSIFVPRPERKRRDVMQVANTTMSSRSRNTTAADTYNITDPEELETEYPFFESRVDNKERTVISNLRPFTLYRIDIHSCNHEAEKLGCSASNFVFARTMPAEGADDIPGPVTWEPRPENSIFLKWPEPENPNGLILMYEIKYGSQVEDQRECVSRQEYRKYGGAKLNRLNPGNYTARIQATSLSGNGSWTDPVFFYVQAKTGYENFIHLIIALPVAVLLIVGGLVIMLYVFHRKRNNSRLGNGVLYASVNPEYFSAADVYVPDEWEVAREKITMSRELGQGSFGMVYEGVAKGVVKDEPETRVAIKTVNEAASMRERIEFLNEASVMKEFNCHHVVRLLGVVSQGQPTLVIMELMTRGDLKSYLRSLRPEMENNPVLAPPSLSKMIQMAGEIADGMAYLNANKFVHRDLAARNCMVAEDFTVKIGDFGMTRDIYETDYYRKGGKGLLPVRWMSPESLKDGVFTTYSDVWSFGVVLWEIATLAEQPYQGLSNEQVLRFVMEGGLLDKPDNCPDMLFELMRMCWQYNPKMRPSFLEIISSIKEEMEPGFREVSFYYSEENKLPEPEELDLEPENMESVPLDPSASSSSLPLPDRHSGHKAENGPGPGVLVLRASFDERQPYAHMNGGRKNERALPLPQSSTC

Panc-1 tumor cells = test: Panc-1 subcutaneous tumor growth in nude mice; assay type: in vivo; conditions: 30 mg/kg each, daily intraperitoneal
Description: as §2

caspase-3 = test: Caspase-3 immunohistochemistry of Panc-1 tumors; assay type: in vivo, mice; conditions: 30 mg/kg, no significant increase
Description: as §2

| Compound | cell growth and survival in vitro (cell growth and survival) | Y397-FAK phosphorylation (Y397-FAK phosphorylation) | total FAK level [1] | Y397 phosphorylation of FAK ([1]; 24 hours) | FAK autophosphorylation activity (FAK) | detachment (BT474 cells [2]; 10 μM) [%] | detachment (BT474 cells [2]; 50 μM) [%] | apoptosis (BT474 cells [3]; 10 μM) [%] | apoptosis (BT474 cells [3]; 20 μM) [%] | level of apoptosis compared to similar doses of Y15 (Panc-1 cells) | tumor growth in ovarian tumor model (glioma and ovarian tumor; 30 mg/kg, alone) | tumor growth in vivo (glioma and ovarian tumor) | IGFR kinase inhibition (IGFR kinase) | tumor growth (Panc-1 tumor cells) | apoptotic cells in tumors (caspase-3 staining) (caspase-3) [%] |
| --- | --- | --- | --- | --- | --- | --- | --- | --- | --- | --- | --- | --- | --- | --- | --- |
| CS(=O)(=O)c1cccc(CNc2nc(Nc3ccc4c(c3)CCC(=O)N4)ncc2C(F)(F)F)c1 [PF-573,228] | did not inhibit cell growth and survival in vitro | effectively blocked Y397-FAK phosphorylation |  |  |  |  |  |  |  |  |  |  |  |  |  |
| CNC(=O)c1ccccc1Nc1nc(Nc2ccc(N3CCOCC3)cc2OC)ncc1Cl [TAE226, reference compound] |  | effectively blocked Y397-FAK phosphorylation | down-regulated total FAK | completely blocked Y397 phosphorylation | directly blocked autophosphorylation activity of FAK | 30 | > 80 | 35 | 69 | slightly higher level of apoptosis | not so effective | inhibited glioma and ovarian tumor growth in vivo | inhibited IGFR kinase |  |  |
| Nc1ccn([C@@H]2O[C@H](CO)[C@@H](O)C2(F)F)c(=O)n1 [gemcitabine, reference compound] |  |  |  |  |  |  |  |  |  |  |  |  |  | inhibited tumor growth | 2 |
